# Experiments:
# [1] = Gel formation of CMHA-S and Gelin-S with disulfide containing small molecules; assay type: physicochemical; settings: thiolated biopolymers CMHA-S and Gelin-S
# Method: Initially we tested whether GSSG would be a suitable reactant for a thiol-disulfide exchange reaction with thiolated biopolymers CMHA-S and Gelin-S to form a two-component (CMHA/Gelin/GSSG) gel with no additional crosslinking molecule (FIG. 1 where R′—SH represents Gelin-S). A gel formed in approximately three minutes using a final concentration of 4 mM GSSG and 0.4% w/v CMHA-S and 0.4% w/v Gelin-S (Sample 4, Table 1).
# ADSC = experiment: Cell attachment on peptide functionalized CMHA/GSSG hydrogels, ADSC; assay type: cell-based, human; settings: 15,000 cells/well, attach overnight, calcein AM
# Method: After N-terminal maleimido-tagged peptides (Anaspec, Inc. Fremont, CCA) were resuspended in 1×PBS, 1 volume 10 mM peptide was mixed with nine volumes CMHA-S, and reaction was allowed to occur at room temperature in the dark, overnight. GSSG was added to a final concentration of 4 mM (brings peptide final concentration to 0.88 mM) and the mixture allowed to form gels in a 48-well multiwell plate. Unreacted peptides were removed by three washes of at least five volumes 1×PBS at 75 rpm 37° C., for at least 4 hr each. ADSC or BM-MSC in DMEM/10% FBS were then added to each well (15,000 cells/well in a 48 well plate) and allowed to attach overnight. On the final day, the cells were imaged by fluorescence using calcein AM stain.
Compound,gel formation [1],ADSC attachment (ADSC)
N[C@@H](CS)C(=O)O [cysteine],did not cause gel formation,
OC1CSSCC1O (stereo not drawn) [oxidized DT],did not cause gel formation,
CRGDS,,poor robustness

# From patent US10137199B2, “Thiolated hyaluronan-based hydrogels cross-linked using oxidized glutathione” (BioTime, Inc., priority 2013, dated 2018)
